From article PMC11926788, “Effect of SSR504734, a Selective Glycine Transporter Type 1 Inhibitor, on Seizure Thresholds, Neurotransmitter Levels, and Inflammatory Markers in Mice” (ACS Chemical Neuroscience, 2025)
Counter-ions that a name gives are not always drawn.

Tests used:
[1] = tested on: human serum albumin and alpha-1-acid glycoprotein; assay: Plasma protein binding (TRANSIL XL PPB test); format: in vitro ADME; settings: ± SD, fraction bound to plasma proteins, read-out: PPB fb (converted)
Procedure: (§1) A series of in vitro ADME-Tox tests were performed for SSR504734 in order to estimate its drugability. The ADME-Tox parameters including permeability, plasma protein binding, metabolic stability, neurotoxicity, and hepatotoxicity were carried out as described previously.[31],[32] The ability of SSR504734 to penetrate through the biological membrane by passive diffusion was estimated by the Gentest Precoated PAMPA Plate System (Corning, Tewksbury, MA) and expressed as the permeability coefficient (Pe). The protein binding analysis was performed by using the commercial TRANSIL^XL PPB test, which mimics in vitro physiological plasma conditions where human serum albumin (HAS) and alpha-1-acid glycoprotein AGP are present in a 24:1 ratio. The human metabolism of SSR504734 was studied using human liver microsomes (HLMs) provided by Sigma-Aldrich. The hepatotoxicity and neurotoxicity were estimated in cellular models with the use of hepatoma HepG2 and neuroblastoma SH-SY5Y cell lines to perform the preliminary safety tests. The cells were incubated with SSR504734 at the concentration range of 0.1–100 μM. 1 μM cytostatic drug doxorubicin (DX) was used as the reference.

[2] = Grip strength test (neuromuscular strength); format: in vivo, mice
Procedure: The effect of SSR504734 on neuromuscular strength was determined using the grip-strength apparatus (BioSeb, Chaville, France). The apparatus consists of a steel wire grid of 8 × 8 cm, connected to an isometric force transducer. Each mouse was held by the tail, allowing it to grasp the grid with its forepaws only and steadily pulled back until it released the grid. The maximum grip strength value (in newtons; N) was measured three times for each animal. The mean force was normalized to body weight and expressed in mN/g ± SD for each experimental group. In order to minimize the number of animals used, a grip-strength test was carried out shortly before seizure tests.
Table S2. Time-course effect of SSR5504734 on neuromuscular strength and motor […]
Group Neuromuscular strength Impairment of motor
SSR504734 was dissolved in normal saline and injected i.p. at the dose of 30 mg/kg. Control animals received saline. The data are expressed as the mean ± SD of grip strengths measured in millinewtons per gram of mouse body weight (mN/g) from the grip-strength test assessing […]
coordination impairment in the chimney test. Each experimental group consisted of 12 animals. The grip-strength test results were analyzed using a one-way ANOVA with Dunnett’s post hoc test, while the data from the chimney test were statistically evaluated using Fisher’s exact probability test. *p<0.05 vs. control group.
Table S3. Effect of acute and 14-day treatment with SSR504734 on neuromuscular strength and motor coordination in mice
In acute studies, SSR504734 and sodium valproate (VPA; positive control) were injected i.p.
60 and 15 min before the test, respectively. In subchronic studies, SSR504734 and VPA were injected i.p. every 24 h for 14 days. The last administration was made 60 and 15 min before the tests, respectively. Control animals received saline. Each experimental group consisted of 12 animals. The grip-strength test results were analyzed using a one-way ANOVA with […]
Fisher’s exact probability test.

[3] = Metabolic stability in human liver microsomes (HLMs); format: in vitro ADME
Procedure: as §1

O=C(NC(c1ccccc1)C1CCCCN1)c1cccc(C(F)(F)F)c1Cl [SSR504734, 2-chloro-N-[(S)-phenyl[(2S)-piperidin-2-yl]methyl]-3-trifluoromethyl benzamide monohydrochloride]
fraction unbound [1]: 0.013
Neuromuscular strength ([2]; 30 mg/kg i.p., 30 min): 30.33 ± 5.38 mN/g
Neuromuscular strength ([2]; 30 mg/kg i.p., 60 min): 33.63± 4.94 mN/g
Neuromuscular strength ([2]; 30 mg/kg i.p., 120 min): 33.49 ± 3.76 mN/g
Neuromuscular strength ([2]; 30 mg/kg i.p., 240 min): 32.13 ± 3.42 mN/g
Neuromuscular strength ([2]; 14-day treatment, 3 mg/kg i.p.): 25.02 ± 5.35 mN/kg
Neuromuscular strength ([2]; 14-day treatment, 10 mg/kg i.p.): 23.48 ± 5.98 mN/kg
Neuromuscular strength ([2]; 14-day treatment, 30 mg/kg i.p.): 27.76 ± 6.00 mN/kg
Neuromuscular strength ([2]; acute treatment, 10 mg/kg i.p.): 31.15 ± 5.55 mN/kg
Neuromuscular strength ([2]; acute treatment, 30 mg/kg i.p.): 31.00 ± 9.46 mN/kg
Neuromuscular strength ([2]; acute treatment, 50 mg/kg i.p.): 30.31 ± 5.08 mN/kg
metabolized ([3]; 120 min incubation with HLMs, UPLC analysis): 5%
remaining at 2 h ([3]; after 120 min of incubation with human liver microsomes): 94.7%
metabolic pathway, metabolite M1 ([3]; after incubation with HLMs): hydroxylation, oxidation, and dehydrogenation
metabolic pathway, metabolite M2 ([3]; after incubation with HLMs): dehydrogenation
metabolic pathway, metabolite M3 ([3]; after incubation with HLMs): oxidation
